# Measurements from patent US20080199423A1, “Methods of Using Apo2l Receptor Agonists and Ink Cell Activators” (GENENTECH, INC., priority 2004, published 2008).
# Entries after “also recorded” stand apart in the source; their conditions may differ. The star is where a group is joined. Cbz = O=C(OCc1ccccc1)*; CH2F = FC*
# How the values were obtained:
# [1] = system: 4T1 cells; experiment: Lysis of 4T1 cells by activated NK cells treated with inhibitors; assay type: cell-based, mouse; settings: E/T ratio 25 to 1
# Method: (§1) The cytolytic activity of resting and activated NK cells was evaluated against 4T1 target cells. The activated NK cells were treated with inhibitors of Perforin maturation (concanamycin A), GraB (Z-AAD-FMK), PI3K (wortmannin), MEK1 kinase (PD98059), S6 kinase (rapamycin) and JNK (SP) to assess the role of cytotoxic granules. The E/T ratio was 25 to 1, and results shown are from one representative donor (out of three donors). […] 4T1 target cells were treated with Apo2L/TRAIL protein (100 ng/ml) or with activated NK cells (“Act NK”) for 30 minutes, 1 hour or 4 hours. The E/T ratio was 10:1. Extracts of the 4T1 cells were analysed by SDS-PAGE and immunoblot analysis for pro-caspase-3, cleaved caspase-3 and cleaved PARP.
# For the cytotoxicity assays, target cells were labeled with 100 mCi ^51Cr for 1 hour at 37° C. and then washed 3 times before use. […] The cytotoxicity assays were performed in round bottom 96 well plates and the percent specific lysis was calculated as 100× (experimental cpm-spontaneous cpm)/(total cpm-spontaneous cpm). The role of Apo2L/TRAIL expressed by NK cells in the lysis of target cells was evaluated using anti-Apo2L/TRAIL mAbs (5C2 and 1D1, Genentech, Inc.). […]
# [2] = system: HCT116 cells; experiment: 51Cr release cytotoxicity assay on HCT116 target cells; assay type: cell-based
# Method: (§2) Purified NK cells were treated with poly(I:C) or R-848 and incubated with B16BL10 melanoma cells (ATCC) at the indicated ratios. Purified NK cells stimulated with R-848 were incubated with HCT116 target cells (ATCC) at the indicated ratios. The role of Apo2L/TRAIL in lysis assays in panels B and C was determined by preincubation with neutralizing (5C2) and non-neutralizing (1D1) anti-Apo2L/TRAIL mAbs. The data has been confirmed with NK cells from at least 3 donors and less that 5% SD was observed.
# (§3) For the cytotoxicity assays, target cells were labeled with 100 mCi ^51Cr for 1 hour at 37° C. and then washed 3 times before use. 10^4 target cells were added to varying numbers of effector cells at the indicated ratios and incubated in duplicate wells for 4 hours at 37° C., 5% CO2, and supernatants were used to determine ^51Cr released using a Gamma counter. The cytotoxicity assays were performed in round bottom 96 well plates and the percent specific lysis was calculated as 100× (experimental cpm-spontaneous cpm)/(total cpm-spontaneous cpm). The role of Apo2L/TRAIL expressed by NK cells in the lysis of target cells was evaluated using anti-Apo2L/TRAIL mAbs (5C2 and 1D1, Genentech, Inc.). Isotype control antibodies were obtained from BD Biosciences.
# [3] = system: Apo2L/TRAIL mRNA in NK cells; experiment: RT-QPCR of Apo2L/TRAIL message in treated NK cells; assay type: cell-based, human
# Method: In another experiment, the purified NK cells were treated for 18 hours in RPMI 1640 supplemented with heat inactivated 10% FCS, penicillin, streptomycin, 10 mM sodium pyruvate, 2 mM L-glutamine and 10 mM HEPES with poly(I:C) (50 μg/ml), R-848 (5 μg/ml) or hIFN-alpha (1000 U/ml, Sigma) in the presence or absence of 10 μg/ml cycloheximide and Apo2L/TRAIL was measured in the extracted RNA. RT-PCR was performed and the amount of cDNA was quantitated by RT-QPCR analysis, normalized to RPL19, and fold induction over control is shown in FIG. 2A. Primers were designed as per instructions (Primer Express) and sequences are: hRPL19-probe: […] (SEQ ID NO:7); hRPL19-For: […] (SEQ ID NO:8); hRPL19-Rev: […] (SEQ ID NO:9); hApo2L-probe: […] (SEQ ID NO:10); hApo2L-For: […] (SEQ ID NO:11); hApo2L-Rev: […] (SEQ ID NO:12). cDNA was analyzed for expression of RPL19 and Apo2L/TRAIL by RT-QPCR (Applied Biosystems) as described in Zarember et al., J. Immunol., 168(2):554-61 (2002). Fold increase values are expressed as arbitrary units, relative to the calibrator gene RPL19.
# [4] = system: B16BL10 melanoma cells; experiment: 51Cr release cytotoxicity assay on B16 melanoma target cells; assay type: cell-based, mouse
# Method: as §2, §3
# [5] = system: cell surface Apo2L/TRAIL on NK cells; experiment: Flow cytometry of cell surface Apo2L/TRAIL on purified NK cells; assay type: cell-based, human; settings: 5C2-Alexa 488 staining
# Method: Cell surface Apo2L/TRAIL on purified NK cells treated with poly(I:C), R-848 or hIL-2 (30 ng/ml, BD Biosciences) was also analyzed by cytometry. Isotype control (IgG2a, Sigma) and anti-Apo2L/TRAIL antibody (5C2) were labeled with Alexa 488 (Molecular Probes). 5×10^5 cells were incubated with 2 μg of human IgG to block FcRs and 1 μg of the directly labeled mAbs at 4° C. for 45 minutes, followed by 2 washes. Stained cells were analyzed using a FACScan cytometer (Becton Dickenson) and Cellquest software.
# [6] = system: 4T1 cells; experiment: 51Cr release cytotoxicity assay, purified human NK cells on 4T1 target cells; assay type: cell-based, mouse; settings: for Lysis of 4T1 cells by NK cells treated with TLR activating agent: NK cells treated for 18 hours with agent, 4 hour incubation, E:T 1:1 to 50:1
# Method: 4T1 cells (a metastatic mammary carcinoma cell line derived from BALE/C mice, obtained from Fred Miller, Karmanos Cancer Institute) were assayed in an in vitro cytotoxicity assay to examine tumoricical effects of various Toll receptor (“TLR”) activators and NK cells. The 4T1 target cells were cultured in IDMEM medium supplemented with 10% FCS, glutamine and penicillin/streptomycin, labeled with 100 mCi ^51Cr for 1 hour at 37° C. and then washed three times with culture medium.
# To prepare purified effector NK cells for the assay, PBMCs from healthy human donors were isolated by standard density-gradient centrifugation over Ficoll-Paque Plus (Pharmacia). CD3 positive cells were first depleted using anti-CD3 microbeads (obtained from Miltenyi), and then the NK cells were purified using anti-CD56 microbeads (Miltenyi). The purity of the NK cell preparation was 95% or higher as determined by staining with mouse anti-human CD56 PE and mouse anti-human CD14 PE conjugates (BD Biosciences). The isolated cells were cultured in RPMI 1640 supplemented with heat inactivated 10% FCS, penicillin, streptomycin, 10 mM sodium pyruvate, 2 mM L-glutamine and 10 mM HEPES.
# 10^4 of the labeled 4T1 cells were added to varying numbers of purified NK cells (either untreated control NK cells or NK cells treated with specific agent) at ratios of 1:1, 3:1, 6:1, 12:1, 25:1, and 50:1, respectively. NK cells were treated for 18 hours with one of the following TLR activating agents: sBLP (1 μg/ml, Bachem); poly(I:C) (50 μg/ml, Pharmacia); E. coli 055:B5 LPS (phenol extracted, 1 μg/ml, Sigma); Flagellin (1 μg/ml, A. Gewirtz, Emory Univerity); R-848 (5 μg/ml, Invivogen); CpG oligonucleotides (2006 and 2216, 5 μM, Invivogen). The cytotoxicity assays were performed in round bottom 96 well plates, and the samples were incubated in duplicate wells for 4 hours at 37° C., 5% CO2. RPMI 1640 supplemented with heat inactivated 10% FCS, penicillin, streptomycin, 10 mM sodium pyruvate, 2 mM L-glutamine and 10 mM HEPES was used during incubation.
# After the 4 hour incubation, supernatants were aspirated from the wells and examined for ^51Cr release using a Gamma counter. The percent specific lysis was calculated as 100× (experimental cpm-spontaneous cpm)/(total cpm-spontaneous cpm). The data are representative of at least three experiments and <5% SD was observed.
# A cytotoxicity assay was performed as described in Example 1, except for the following modifications. Purified NK cells were treated with poly(I:C) or R-848 overnight and incubated with 4T1 cells. The role of TNF-alpha, FasL, and Apo2L/TRAIL was evaluated by preincubation of the NK cells with neutralizing antibodies to the respective ligands. The following neutralizing antibodies were added at final concentration of 2 μg/ml: anti-Fas-L (mIgG2b, R&D Systems), anti-TNF-alpha (mIgG1, Genentech), and anti-Apo2L/TRAIL (5C2, mIgG2a, ATCC HB-12258 and 1D1, mIgG2b; ATCC HB-12257). Isotype control antibodies were obtained from BD Biosciences.
# as §3
# [7] = system: C57MG; experiment: 51Cr release cytotoxicity assay on C57MG cells; assay type: cell-based, mouse
# [8] = system: SKMES-1 cells; experiment: 51Cr release by SKMES-1 cells incubated with soluble Apo2L/TRAIL; assay type: cell-based; settings: range of concentrations, 4 hours
# Method: The role of Apo2L/TRAIL was evaluated by preincubation of NK cells with either a neutralizing (5C2) or non-neutralizing (1D1) mAb. The % lysis was plotted, and the results are representative of 3 experiments (less than 5% SD was observed). […] The supernatants were then assessed for Cr release. Similar cytolysis results were obtained in at least 3 experiments.
# as §3
# [9] = system: 4T1 cells; experiment: Clonogenic potential of 4T1 cells; assay type: cell-based, mouse
# Method: Since both cell surface Apo2L/TRAIL and perforin granules are essential for lysis of 4T1 cells, assays were conducted to examine if resting NK cells could be “armed” by the addition of soluble Apo-2L/TRAIL protein. There is precedence for membrane bound and soluble forms of TNF family members to display differential behavior upon application to the target cell. With the aim of corroborating the ^51Cr release assays, the clonogenic potential of 4T1 cells was evaluated by treatment with soluble Apo2L/TRAIL and resting NK cells.
# [10] = system: caspase-3 and PARP cleavage in 4T1 cells; experiment: Immunoblot for caspase-3 and PARP cleavage in 4T1 cells; assay type: cell-based, mouse
# Method: as §1
# 4T1 cells were treated with Apo2L/TRAIL, resting NK cells (“NK”) or activated NK cells (“Act NK”) separately or in combination. The lysates were analyzed for cleavage of PARP, an indicator of caspase-3 activation. NK cells from multiple donors were utilized and results from one representative donor are shown. […]
# Total cell extracts were prepared from 4T1 cells using lysis buffer (0.1 M Tris pH 8.0, 500 mM NaCl, 2 mM EDTA, […], 10% glycerol, supplemented with Complete Protease Inhibitor Cocktail, Roche), and the lysates were clarified by centrifugation at 16,000 rpm for 10 minutes at 4° C. […] Immune complexes were detected using enhanced chemiluminesence (Amersham).
compound,measurement,setting,value
C/C=C/[C@H]1O[C@@](O)([C@@H](C)[C@H](O)[C@H](C)[C@H]2OC(=O)/C(OC)=C/C(C)=C/[C@@H](C)[C@@H](O)[C@@H](CC)[C@@H](O)[C@H](C)C/C(C)=C/C=C/[C@@H]2OC)C[C@@H](O[C@H]2C[C@@H](O)[C@H](OC(N)=O)[C@@H](C)O2)[C@@H]1C [Concanamycin A],Effect of inhibitor treatment of activated NK cells on lysis of 4T1 cells,[1],blocked the cytotoxic activity
CCOCc1nc2c(N)nc3ccccc3c2n1CC(C)(C)O [R-848],Cytotoxicity of stimulated NK cells towards HCT116 cells,[2]; NK cells stimulated with agent,increased cytoxicity
same,Increase of Apo2L/TRAIL mRNA over control,"[3]; NK cells treated 18 hours, normalized to RPL19",25 fold
same,Killing of B16 melanoma cells by stimulated NK cells,[4]; NK cells stimulated with agent,efficiently killed
same,Cell surface expression of Apo2L/TRAIL on NK cells,[5],detectable cell surface expression
same,Lysis of 4T1 cells by NK cells treated with TLR activating agent,[6],efficiently killed
C[C@@H]1C[C@@H]([C@H](O)CC2CC(=O)NC(=O)C2)C(=O)[C@@H](C)C1 [cycloheximide],Effect of protein synthesis inhibitor on induction of Apo2L/TRAIL message in stimulated NK cells,"[3]; 10 μg/ml cycloheximide, poly(I:C), R-848 or IFN-alpha stimulated",not blocked
"Apo2L/TRAIL: recombinant Apo2L/TRAIL (amino acids 114-281), prepared as in Ashkenazi et al. 1999","Lysis of C57MG cells, Apo2L/TRAIL added to activated NK cells",[7]; plus activated NK cells,no significant increase
same,"Lysis of C57MG cells, Apo2L/TRAIL added to resting NK cells",[7]; plus resting NK cells,increased the lysis observed
same,"Cytotoxic effect on HCT116 cells, Apo2L/TRAIL with limiting ratios of resting NK cells",[2]; 5 ng/ml Apo2L/TRAIL plus resting NK cells,enhanced cytotoxic effect
same,Lysis of HCT116 cells by Apo2L/TRAIL alone,"[2]; 5 ng/ml Apo2L/TRAIL, no NK cells",no lysis
same,"51Cr release by HCT-116 cells, Apo2L/TRAIL alone","[2]; range of concentrations, 4 hours",effectively mediated release
same,"51Cr release by SKMES-1 cells, Apo2L/TRAIL alone",[8],effectively mediated release
same,"Lysis of B16BL10 cells, Apo2L/TRAIL added to activated NK cells",[4]; plus activated NK cells,no significant increase
same,"Lysis of B16BL10 cells, Apo2L/TRAIL added to resting NK cells",[4]; plus resting NK cells,increased the lysis observed
same,Apoptotic effect of Apo2L/TRAIL protein alone on B16 cells,"[4]; range of concentrations, no NK cells",certain resistance
same,"Clones of 4T1 cells, simultaneous soluble Apo2L/TRAIL and resting NK cells","[9]; NK cells at ratio 25 to 1, after 5 days",dramatic reduction in clones
same,"Clonogenic capacity of 4T1 cells, soluble Apo2L/TRAIL alone",[9]; individual treatment,not affected in terms of clonogenic capacity
same,"Cleavage of pro-caspase-3 and PARP in 4T1 cells, Apo2L/TRAIL alone","[10]; 100 ng/ml, 30 minutes, 1 hour or 4 hours",did not result in cleavage
same,"PARP cleavage in 4T1 cells, resting NK cells along with soluble Apo2L/TRAIL",[10]; combined treatment,production of cleaved PARP
same,"Lysis of 4T1 cells, Apo2L/TRAIL with resting NK cells",[6]; increasing concentrations of Apo2L/TRAIL plus resting NK cells,dose dependent lysis
same,"Lysis of 4T1 cells, Apo2L/TRAIL added to activated NK cells",[6]; plus activated NK cells,Some increase
same,Lysis of 4T1 cells by Apo2L/TRAIL protein alone,"[6]; range of concentrations, up to 2 μg/ml, no NK cells",resistant to lysis; also recorded: certain resistance
Cbz-Ala-Ala-Asp-CH2F [GraB inhibitor],Effect of inhibitor treatment of activated NK cells on lysis of 4T1 cells,[1],reduction in lysis
Flagellin,Lysis of 4T1 cells by NK cells treated with TLR activating agent,[6],"neither BLP, LPS, Flagellin, nor the CpG oligonucleotides induced cytotoxic activity"
